The record followed here is US20020028938A1, “Prostaglandin endoperoxide H synthase biosynthesis inhibitors” (priority 1997, published 2002).

In data set [1] the target is T1, recombinant human Cox-2 (r-hu Cox-2) (Homo sapiens, UniProt P35354).
T1 construct: made in house; host or cells: baculovirus/Sf9 insect cells (microsomes)
T1 sequence (P35354 18-604): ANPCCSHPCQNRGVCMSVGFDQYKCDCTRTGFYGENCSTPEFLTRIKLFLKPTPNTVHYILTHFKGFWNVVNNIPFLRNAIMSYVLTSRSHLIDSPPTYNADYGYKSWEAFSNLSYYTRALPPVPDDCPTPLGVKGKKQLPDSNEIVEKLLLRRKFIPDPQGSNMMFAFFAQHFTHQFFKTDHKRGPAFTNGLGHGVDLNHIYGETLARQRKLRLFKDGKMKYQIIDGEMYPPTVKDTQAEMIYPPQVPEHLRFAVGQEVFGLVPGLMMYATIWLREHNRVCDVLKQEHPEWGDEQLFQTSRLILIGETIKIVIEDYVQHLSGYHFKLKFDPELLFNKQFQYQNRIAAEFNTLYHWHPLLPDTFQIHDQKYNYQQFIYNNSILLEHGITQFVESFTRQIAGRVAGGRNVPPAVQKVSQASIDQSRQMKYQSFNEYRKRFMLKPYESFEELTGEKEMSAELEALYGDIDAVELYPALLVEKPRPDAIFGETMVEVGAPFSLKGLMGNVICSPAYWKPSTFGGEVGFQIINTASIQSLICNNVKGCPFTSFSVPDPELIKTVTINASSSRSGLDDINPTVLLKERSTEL
Put plainly: Recombinant human PGHS-2 enzyme assay (RHUCX2). As to conditions: for IC50: read-out: RHUCX2 IC50 (parenthetical value). The format is biochemical. The gist of the method: (§1)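 PGE2 formed with and without drug quantified by EIA against matrix-matched standards; percent inhibition relative to control mean, IC50 by linear regression.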

Data set [2] concerns air pouch prostaglandin biosynthesis (Cox-2). Nature of the data set: Carrageenan induced air pouch prostaglandin biosynthesis model (CAP). As to conditions: for inhibition in vivo at 3 mg/kg: 4 h, read-out: CAP % Inhib. @ 3 mpk; for ED50: Rattus norvegicus. The format is in vivo, rat. A digest of the protocol:
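Male Sprague Dawley rats with dorsal air pouches (20 mL air day 0, 10 mL day 3) received 0.2% lambda carrageenan in saline into the pouch on day 7. Compounds dosed at 0.1 to 10 mg/kg 30 min before carrageenan; pouch lavaged 4 h later, prostaglandins measured by EIA. Percent inhibition versus control mean; ED50 by linear regression.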

Data set [3] concerns the target T2, human amnionic whole cell cyclooxygenase-2 (WISH cells) (Homo sapiens, UniProt P35354).
T2 construct: endogenous in cells; host or cells: human amnionic WISH cells, induced with IL-1beta
T2 sequence (P35354 18-604): T1 sequence (P35354 18-604)
Put plainly: IL-1β induced PGE2 production in WISH cells. As to conditions: read-out: Wish IC50 (parenthetical value). The format is cell-based. A digest of the protocol: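 Confluent (80%) WISH cells were stimulated with 5 ng/ml IL-1β in serum-free Neuman-Tytell medium, with or without test compound in DMSO (0.01% v/v). PGE2 in the culture medium was measured by EIA against standards prepared in the same medium, read by optical density.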

Data set [4] has as its system carrageenan induced paw edema. Put plainly: Carrageenan induced paw edema (CPE) in rats. The format is in vivo. As to conditions: rat; for inhibition in vivo at 10 mg/kg: read-out: CPE % Inhib. @ 10 mpk. On the procedure: For oral administration, test compounds were suspended on the day of use in 100% polyethyleneglycol (PEG 400) with a motorized homogenizer equipped with a Teflon-coated pestle (TRI-R Instrument, Jamaica, N.Y.).
To compare the mean responses of the treatment groups, analysis of variance was applied. Percent inhibition values were determined by comparing the individual treatment mean values to the mean of the control group. Linear regression was used to estimate IC50's/ED50's in appropriate assays.
Hingpaw edema was […] in male rats as described by Winter et al., Proc. Soc. Exp. Biol. Med., 1962, 111, 544. Briefly, male Sprague-Dawley rats weighing between 170 and 190 g were administered test compounds orally 1 hour prior to the subplantar injection of 0.1 ml of 1% sodium carrageenan (lambda carrageenan, Sigma Chemical Co., St Louis, Mo.) into the right hindpaw. Right paw volumes (ml) were measured immediately following injection of carrageenan for baseline volume measurements using a Buxco plethysmograph (Buxco Electronics, Inc., Troy, N.Y.). Three hours after the injection of carrageenan, right paws were remeasured and paw edema calculated for each rat by subtracting the zero time reading from the 3 hour reading. Data are reported as mean percent inhibition +/−SEM. Statistical significance of results was analyzed by Dunnetts multiple comparison test where p<0.05 was considered statistically significant.

Data set [5] has as its target T3, Human Whole Platelet Cyclooxygenase-1 (Homo sapiens, UniProt P23219).
T3 construct: from tissue; host or cells: human blood: isolated platelets (A4) or heparinised whole blood (A9)
Nature of the data set: Human Whole Platelet Cyclooxygenase-1 assay (HWPX). To be noted: for IC50: read-out: HWPX IC50 (parenthetical value). The format is cell-based. A digest of the protocol:
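Washed platelets from healthy-donor ACD blood were pre-incubated with compound for 10 min, then stimulated with calcium ionophore A23187 (8.8 μM final) for 10 min. Reaction stopped with cold 6 mM EDTA; thromboxane in supernatants quantified with a commercial kit.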

Data set [6] concerns the target T4, recombinant human Cox-1 (r-hu Cox1) (Homo sapiens, UniProt P23219).
T4 construct: made in house; host or cells: baculovirus/Sf9 insect cells (microsomes)
Put plainly: Recombinant human PGHS-1 enzyme assay (RHUCX1). The format is biochemical. The gist of the method:
as §1

Where [7] appears, read: 10 mpk oral, 3 hours after carrageenan.
[8] abbreviates: read-out: RHUCX1 % Inh. at Dose.
Setting [9] is: read-out: RHUCX2 % Inh. at Dose.

T3 sequence (P23219 24-599): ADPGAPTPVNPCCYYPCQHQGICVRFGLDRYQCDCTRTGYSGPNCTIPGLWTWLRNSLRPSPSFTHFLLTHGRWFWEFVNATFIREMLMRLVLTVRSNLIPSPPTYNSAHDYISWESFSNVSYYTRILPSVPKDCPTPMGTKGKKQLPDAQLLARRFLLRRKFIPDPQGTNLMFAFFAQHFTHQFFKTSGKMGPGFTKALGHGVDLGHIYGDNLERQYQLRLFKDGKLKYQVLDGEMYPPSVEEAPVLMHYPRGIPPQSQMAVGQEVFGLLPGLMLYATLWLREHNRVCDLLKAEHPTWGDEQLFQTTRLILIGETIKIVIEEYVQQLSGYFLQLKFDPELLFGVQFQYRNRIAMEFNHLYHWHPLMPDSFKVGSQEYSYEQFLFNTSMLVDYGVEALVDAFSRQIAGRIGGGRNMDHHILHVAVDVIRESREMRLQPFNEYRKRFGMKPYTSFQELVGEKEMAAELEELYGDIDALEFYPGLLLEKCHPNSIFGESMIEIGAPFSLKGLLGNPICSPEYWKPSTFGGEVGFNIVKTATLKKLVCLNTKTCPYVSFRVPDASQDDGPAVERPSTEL
T4 sequence (P23219 24-599): as above

Take `CS(=O)(=O)c1ccc(-c2cnn(-c3ccc(F)c(F)c3)c(=O)c2Oc2ccc(F)cc2)cc1` [Example 109, 2-(3,4-Difluorophenyl)-4-(4-fluorophenoxy)-5-[4-(methylsulfonyl)phenyl]-3(2H)-pyridazinone]: the melting point is 178 to 180 °C. In data set [1], the IC50 came to 147 nM. Moreover, the inhibition in vivo at 3 mg/kg in data set [2] (3 mpk, rat) worked out at 71%. In data set [3], the IC50 stood at 18 nM. For the same molecule, the inhibition in vivo at 10 mg/kg in data set [4] (setting [7]) worked out at 13%. The 50% inhibitory concentration (IC50) in data set [5] amounted to 2690 nM. Also, the inhibition at 100 µM in data set [6] (setting [8]) came to 6%.

`CS(=O)(=O)c1ccc(-c2cnn(-c3cccc(Cl)c3)c(=O)c2Oc2ccc(F)cc2)cc1` [Example 112, 2-(3-Chlorophenyl)-4-(4-fluorophenoxy)-5-[4-(methylsulfonyl)phenyl]-3(2H)-pyridazinone] gave a melting point of 211 to 213 °C. Further, the IC50 in data set [1] was found to be 136 nM. The inhibition in vivo at 3 mg/kg in data set [2] (3 mpk, rat) worked out at 42.5%. Further, the inhibition in vivo at 10 mg/kg in data set [4] (setting [7]) worked out at 21%. Further, in data set [6] (setting [8]), the inhibition at 100 µM amounted to 5%.

Consider `CC(C)CCc1c(-c2ccc(S(N)(=O)=O)c(F)c2)cnn(CC(F)(F)F)c1=O` [Example 226], for which the IC50 in data set [1] is 1090 nM. In addition, in data set [2] (3 mpk, rat), the inhibition in vivo at 3 mg/kg was 40.5%. Also, the inhibition in vivo at 10 mg/kg in data set [4] (setting [7]) was found to be 21%. In addition, the inhibition at 100 µM in data set [6] (setting [8]) was determined as 0%.

For `CC(C)CCOc1c(-c2ccc(S(C)(=O)=O)cc2)cnn(-c2ccc(F)c(F)c2)c1=O` [Example 347, 2-(3,4-Difluorophenyl)-4-(3-methyl-1-butoxy)-5-[4-(methylsulfonyl)phenyl]-3(2H)-pyridazinone], the melting point was in the range of 121 to 123 °C. Further, the IC50 in data set [1] was found to be 75 nM. For the same molecule, the inhibition in vivo at 3 mg/kg in data set [2] (3 mpk, rat) worked out at 66.5%. For the same molecule, the inhibition in vivo at 10 mg/kg in data set [4] (setting [7]) turned out to be 27%. Further, the inhibition at 100 µM in data set [6] (setting [8]) came out at 11%.

Consider `CS(=O)(=O)c1ccc(-c2cnn(-c3cccc(Cl)c3)c(=O)c2Cc2ccccc2)cc1` [Example 367, 2-(3-Chlorophenyl)-4-benzyl-5-[4-(methylsulfonyl)phenyl]-3(2H)-pyridazinone], for which the melting point is 174 to 177 °C. In addition, the 50% inhibitory concentration (IC50) in data set [1] amounted to 77 nM. The inhibition in vivo at 3 mg/kg in data set [2] (3 mpk, rat) was found to be 48%. Moreover, the IC50 in data set [3] stood at 18 nM. In addition, in data set [5] (0.3 μM, read-out: HWPX % Inhib. at Dose), the inhibition at 0.3 µM was found to be 8%. Besides, the inhibition at 1 µM in data set [5] (1 μM, read-out: HWPX % Inhib. at Dose) stood at 50%. In addition, the inhibition at 100 µM in data set [6] (setting [8]) stood at 0%.

Take `CC(C)COc1c(-c2ccc(S(C)(=O)=O)cc2)cnn(-c2ccc(F)cc2)c1=O` [Example 376, 2-(4-Fluorophenyl)-4-(2-methylpropoxy)-5-[4-(methylsulfonyl)phenyl]-3(2H)-pyridazinone]: the melting point was in the range of 121 to 128 °C. Moreover, the IC50 in data set [1] came out at 27 nM. Also, in data set [2] (3 mpk, rat), the inhibition in vivo at 3 mg/kg was found to be 77.5%. Also, in data set [4] (setting [7]), the inhibition in vivo at 10 mg/kg was 17%. Further, the inhibition at 100 µM in data set [6] (setting [8]) is 12%.

Turning to `NS(=O)(=O)c1ccc(-c2cnn(-c3ccc(F)c(F)c3)c(=O)c2Oc2ccc(F)cc2)cc1` [Example 388, 2-(3,4-Difluophenyl)-4-(4-fluorophenoxy)-5-[4-(aminosulfonyl)phenyl]-3(2H)-pyridazinone], the IC50 in data set [1] was 49 nM; in data set [3] it was 32 nM. Also, the “CAP % Inhib. @ 3 mpk” value in data set [2] (3 mpk, rat) is reported as 80%. The “CPE % Inhib. @ 10 mpk” value in data set [4] (setting [7]) was found to be 28%. For the same molecule, the “HWPX % Inhib. at Dose (μM)” value in data set [5] (0.3 μM) is 0 @ .3%. Also, the “RHUCX1 % Inh. at Dose (μM)” value was 36 @ 1% in data set [6] (1 μM) and 74 @ 10% in data set [6] (10 μM).

Regarding `CC(C)CCc1c(-c2ccc(S(N)(=O)=O)cc2)cnn(-c2cccc(Cl)c2)c1=O` [Example 392, 2-(3-Chlorophenyl)-4-(3-methylbutyl)-5-[4-(aminosulfonyl)phenyl]-3(2H)-pyridazinone], the melting point fell in the range of 167 to 170 °C. In addition, in data set [1] (setting [9]), the inhibition at 0.01 µM was found to be 65% and the inhibition at 0.1 µM was found to be 82%. Besides, the inhibition in vivo at 3 mg/kg in data set [2] (3 mpk, rat) is 60%. Further, the 50% inhibitory concentration (IC50) in data set [3] was 20 nM. Besides, in data set [5], the IC50 was 1950 nM. The inhibition at 10 µM in data set [6] (10 μM, read-out: RHUCX1 % Inh. at Dose) was determined as 35%. Also, the inhibition at 100 µM in data set [6] (setting [8]) was found to be 56%.

Take `CC(C)COc1c(-c2ccc(S(N)(=O)=O)cc2)cnn(-c2ccc(F)cc2)c1=O` [Example 397, 2-(4-Fluorophenyl)-4-(2-methylpropoxy)-5-[4-(aminosulfonyl)phenyl]-3(2H)-pyridazinone]: the melting point is 132 to 136 °C. In data set [1] (setting [9]), the inhibition at 0.01 µM was 39% and the inhibition at 0.1 µM is 58%. In addition, in data set [1] (1 μM, read-out: RHUCX2 % Inh. at Dose), the inhibition at 1 µM is 93%. In addition, the inhibition in vivo at 3 mg/kg in data set [2] (3 mpk, rat) is 70%. The IC50 in data set [3] was determined as 40 nM. Moreover, the IC50 in data set [5] came to 13800 nM. The inhibition at 100 µM in data set [6] (setting [8]) was determined as 25%.

Turning to `CC(=O)CCOc1c(-c2ccc(S(C)(=O)=O)cc2)cnn(-c2ccc(F)c(F)c2)c1=O` [Example 467, 2-(3,4-Difluorophenyl)-4-(3-oxo-1-butoxy)-5-[4-(methylsulfonyl)phenyl]-3(2H)-pyridazinone], the melting point was in the range of 134 to 135 °C. In addition, the 50% inhibitory concentration (IC50) in data set [1] is 1960 nM. In data set [2], the 50% effect level (ED50) was put at a dose of 0.4 mg/kg. Also, the IC50 in data set [3] is 135 nM. Also, the “CPE ED30” value in data set [4] (oral) is given as “ED30 = 1.7”. For the same molecule, the inhibition at 100 µM in data set [6] (setting [8]) is 4%.

For `CC(C)(O)CCOc1c(-c2ccc(S(C)(=O)=O)cc2)cnn(-c2cccc(Cl)c2)c1=O` [Example 475, 2-(3-Chlorophenyl)-4-(3-hydroxy-3-methyl-1-butoxy)-5-[4-(methylsulfonyl)phenyl]-3(2H)-pyridazinone], the IC50 in data set [1] was 710 nM; in data set [3], 440 nM. In data set [2], the ED50 was determined as 1.4 mg/kg. Also, the inhibition in vivo at 10 mg/kg in data set [4] (setting [7]) was found to be 33%. Further, the inhibition at 100 µM was 50% in data set [5] (100 μM, read-out: HWPX % Inhib. at Dose) and 0% in data set [6] (setting [8]).

As to `CC(=O)NS(=O)(=O)c1ccc(-c2cnn(CC(F)(F)F)c(=O)c2OCC(C)(C)CO)cc1` [Example 528, N-[[4-[2-(2,2,2-Trifluoroethyl)-4-(3-hydroxy-2,2-dimethyl-1-propoxy)-2H-pyridazin-3-on-5-yl]phenyl]sulfonyl]acetamide], the IC50 in data set [1] was 720 nM; in data set [3] it was 54 nM; in data set [5], 3500 nM; in data set [6] (read-out: RHUCX1 IC50 (parenthetical value)), 3400 nM. In addition, the ED50 in data set [2] came to 1.4 mg/kg. The inhibition in vivo at 10 mg/kg in data set [4] (setting [7]) was 40%.
